From ChEMBL document CHEMBL1131862, “Synthesis and anti-HIV activity of arylpiperazinyl fluoroquinolones: a new class of anti-HIV agents” (Bioorg Med Chem Lett, 1999)

Key:
[1] = tested on: Human immunodeficiency virus 1; experiment: Anti-HIV activity against HIV-1 IIIB chronically infected Molt-4 cells; assay type: functional, organism-based; settings: Human immunodeficiency virus 1, MOLT-4
[2] = tested on: Human immunodeficiency virus 1; experiment: Cytotoxicity to HIV-1 IIIB chronically infected Molt-4 cells assayed using tetrazolium based colorimetric assay; assay type: functional; settings: Human immunodeficiency virus 1, MOLT-4
MOLT-4 = experiment: Anti-HIV activity against HIV-1 IIIB chronically infected Molt-4 cells; Not active; assay type: functional, cell-based, Homo sapiens

Row | SMILES | IC50 [1] | IC50 (MOLT-4) | CC50 [2]
1 | COc1ccccc1N1CCN(c2c(F)cc3c(=O)c(C(=O)O)cn(CCO)c3c2OC(F)F)CC1 | 0.26 µM | – | 26 µM
2 | COc1ccccc1N1CCN(c2c(F)cc3c(=O)c(C(=O)O)cn(C(C)C)c3c2OC(F)F)CC1 | 0.1 µM | – | 8.9 µM
3 | O=C(O)c1cn(C2CC2)c2c(OC(F)F)c(N3CCN(c4ccccn4)CC3)c(F)cc2c1=O | 0.25 µM | – | 15 µM
4 | COc1ccccc1N1CCN(c2c(F)cc3c(=O)c(C(=O)O)cn(CCN(C)C)c3c2OC(F)F)CC1 | 5.6 µM | – | > 55 µM
5 | O=C(O)c1cn(C2CC2)c2c(OC(F)F)c(N3CCN(c4ccccc4)CC3)c(F)cc2c1=O | 0.063 µM | – | 8.4 µM
6 | O=C(O)c1cn(C2CC2)c2c(F)c(N3CCN(c4ccccn4)CC3)c(F)cc2c1=O | 50 µM | – | > 50 µM
7 | COc1ccccc1N1CCN(c2c(F)cc3c(=O)c(C(=O)O)cn(CCF)c3c2OC(F)F)CC1 | 0.27 µM | – | 22 µM
8 | COc1ccc(N2CCN(c3c(F)cc4c(=O)c(C(=O)O)cn(C5CC5)c4c3OC(F)F)CC2)cc1 | 0.6 µM | – | 17 µM
9 | O=C(O)c1cn(CCO)c2c(OC(F)F)c(N3CCN(c4ncccn4)CC3)c(F)cc2c1=O | 0.79 µM | – | > 60 µM
10 | COc1ccccc1N1CCN(c2c(F)cc3c(=O)c(C(=O)O)cn(CC(=O)O)c3c2OC(F)F)CC1 | > 55 µM | – | > 55 µM
11 | COc1ccccc1N1CCN(c2c(F)cc3c(=O)c(C(=O)O)cn(CCOC(C)=O)c3c2OC(F)F)CC1 | 0.1 µM | – | 11 µM
12 | O=C(O)c1cn2c3c(c(N4CCN(c5ccccn5)CC4)c(F)cc3c1=O)OCC2CF (stereo not given) | 1.7 µM | – | > 60 µM
13 | COc1ccccc1N1CCN(c2c(F)cc3c(=O)c(C(=O)O)cn(C4CC4)c3c2OC(F)F)CC1 | 0.11 µM | – | 9.9 µM
14 | O=C(O)c1cn(CCF)c2c(OC(F)F)c(N3CCN(c4ncccn4)CC3)c(F)cc2c1=O | 0.93 µM | – | > 60 µM

Now from value to compound, other results behind:

Row | IC50 [1] | IC50 (MOLT-4) | SMILES | CC50 [2]
15 | > 60 µM | – | O=C(O)c1cn(C2CC2)c2c(OC(F)F)c(N3CCNCC3)c(F)cc2c1=O | > 60 µM
16 | 0.094 µM | – | CCn1cc(C(=O)O)c(=O)c2cc(F)c(N3CCN(c4ccccc4OC)CC3)c(OC(F)F)c21 | 13 µM
17 | 0.5 µM | – | CNn1cc(C(=O)O)c(=O)c2cc(F)c(N3CCN(c4ncccn4)CC3)c(OC(F)F)c21 | > 60 µM
18 | 0.23 µM | – | CC(C)n1cc(C(=O)O)c(=O)c2cc(F)c(N3CCN(c4ncccn4)CC3)c(OC(F)F)c21 | 31 µM
19 | 3.7 µM | – | CC1COc2c(N3CCN(c4ccccn4)CC3)c(F)cc3c(=O)c(C(=O)O)cn1c23 (stereo not given) | 39 µM
20 | 0.14 µM | – | Cn1cc(C(=O)O)c(=O)c2cc(F)c(N3CCN(c4ncccn4)CC3)c(OC(F)F)c21 | 38 µM
21 | 0.7 µM | – | COc1cccc(N2CCN(c3c(F)cc4c(=O)c(C(=O)O)cn(C5CC5)c4c3OC(F)F)CC2)c1 | 22 µM
22 | 0.97 µM | – | O=C(O)c1cn(C2CC2)c2c(OC(F)F)c(N3CCN(c4ncccn4)CC3)c(F)cc2c1=O | > 40 µM
23 | – | Not Active | O=C(O)c1cn(C2CC2)c2c(OC(F)F)c(N3CCN(Cc4ccccc4)CC3)c(F)cc2c1=O | 23 µM
24 | 0.14 µM | – | COc1ccccc1N1CCN(c2c(F)cc3c(=O)c(C(=O)O)cn(C)c3c2OC(F)F)CC1 | 13 µM
25 | 0.35 µM | – | CNn1cc(C(=O)O)c(=O)c2cc(F)c(N3CCN(c4ccccc4OC)CC3)c(OC(F)F)c21 | 19 µM
26 | 0.059 µM | – | O=C(O)c1cn(C2CC2)c2c(OC(F)F)c(N3CCN(c4ccc(F)cc4)CC3)c(F)cc2c1=O | 5.7 µM
27 | > 60 µM | – | CN1CCN(c2c(F)cc3c(=O)c(C(=O)O)cn(C4CC4)c3c2OC(F)F)CC1 | > 60 µM
28 | 0.48 µM | – | O=C(O)c1cn(C2CC2)c2c(OC(F)F)c(N3CCN(c4ccc(Cl)cc4)CC3)c(F)cc2c1=O | 5.8 µM
29 | 1.8 µM | – | COc1c(N2CCN(c3ccccn3)CC2)c(F)cc2c(=O)c(C(=O)O)cn(C3CC3)c12 | 26 µM
30 | 0.41 µM | – | CCn1cc(C(=O)O)c(=O)c2cc(F)c(N3CCN(c4ncccn4)CC3)c(OC(F)F)c21 | 28 µM
